Source: US10220040B2, “Compounds, compositions and methods useful for cholesterol mobilization” (Cerenis Therapeutics Holding SA, priority 2010, dated 2019)

Assays:
C57Bl6 mice = assay: Bile acids physiology after IV injection in mice; assay type: in vivo; settings: intravenously 10 nmol/kg, after 4 h; effect slightly higher than with Cangrelor
Protocol: FIG. 5A-B: Single-dose effect of the illustrative compounds of the invention on bile acids secretion after IV injection. Mice were fasted for 2 hours and then injected in the caudal vein with the selected molecules (10 nmol/kg) in PBS solution (100 μl). 4 hours later the bile content was analyzed. FIG. 5A. Data are expressed as the concentration of bile acids. FIG. 5B. Data are expressed as the pool of bile acids per mouse (*p<0.05, **p<0.005, ***p<0.0001). Group of animals n=5.
Bile acids are derived from cholesterol and their synthesis is the predominant pathway for catabolism of cholesterol. The HDL uptake by the liver is directly connected with the bile acids secretion and the bile cholesterol clearance. […] An increase of bile acids concentration as well as of the bile volume was observed. All the compounds responded as well as or even better than the control compound (Reference Compound).
Bile acids were diluted in PBS (1:5000) and the concentration was measured according to the manufacturer protocol with slight modifications. Concentrations of bile acids in the standard curve were varied from […] and the enzymatic reaction was performed for 20 minutes. 4 μl of 1:5000 bile dilution was used for concentration determination.

New Zealand rabbits = assay: Plaque regression in high-cholesterol diet fed New Zealand rabbits; assay type: in vivo, rabbit
Protocol: FIG. 20A-M: Plaque regression in rabbits treated with Compound IIa. New Zealand rabbits (n=15) with atherosclerotic plaques developed after 2 months of high-cholesterol diet, were treated with Compound IIa at 30, 100 and 300 μg/kg once a day by oral gavage for 4 weeks. FIG. 20A: lipids extracted from aortas were analyzed by GC/MS for cholesterol concentration. Dark bars, unesterified cholesterol; superimposed gray bars, total cholesterol. *p<0.05. FIG. 20B, FIG. 20C and FIG. 20D: Plasma VLDL cholesterol, LDL cholesterol and HDL cholesterol were resolved as described in FIG. 2. The results are expressed as the percentage from pre-dose. FIG. 20E: apoB concentration in plasma was determined by Western blot analysis. FIG. 20F: triglycerides were measured in the plasma using the kit from Biolabo. FIG. 20G: the bile acids concentrations in liver were determined using an enzymatic kit. FIG. 20H and FIG. 20K: hematoxylin/eosin staining of aortas from rabbits dosed with vehicle (FIG. 20H) or Compound IIa at 300 μg/kg (FIG. 20K). FIG. 20I and FIG. 20L: smooth muscle cells staining of aortas from rabbits dosed with vehicle (FIG. 20I) or Compound IIa at 300 μg/kg (FIG. 20L). FIG. 20J and FIG. 20M: macrophages and monocytes staining of aortas from rabbits dosed with vehicle (FIG. 20J) or Compound IIa at 300 μg/kg (FIG. 20M).
FIG. 21A-F: Functionality of plasma from high-cholesterol diet fed rabbits treated with Compound IIa. FIG. 21A: ApoA-I concentration in plasma was measured by SELDI-TOF analysis. Purified ApoA-I from homo-sapiens (MWSELDI=28083 Da) was used as a reference for determination of rabbit ApoA-I (MWSELDI=27838 Da) concentration. The results are expressed as the percentage from pre-dose. FIG. 21B: ApoA-I mRNA level was determined using the QPCR technique. Note the overall decrease in the HDL particle size of treated animals. FIG. 21C; HDL from rabbit plasma were separated according to the size of the different HDL particles using the Lipoprint® system. The data were expressed as the percentage for each HDL subpopulation set to the HDL population in the pre-dose animals. Two main HDL particle sub-populations were quantified (high and intermediate—dark and gray bars respectively). FIG. 21D: example of lipoprotein profiles of rabbit treated with vehicle (gray line) and with Compound IIa (300 μg/kg, dark line) using the Lipoprint® separation technique. FIG. 21E and FIG. 21F: determination of cholesterol efflux capacity of plasma and rabbit HDL, respectively, using pre-loaded [^3H]-cholesterol-oxLDL macrophages. The results are expressed as a percentage of cholesterol efflux. *p<0.05, **p<0.005.
After 2 months of High Cholesterol Diet feeding (0.5% cholesterol) and a wash-out period of 2 weeks, the animals were treated (by oral gavage) once day with Compound IIa at 30, 100 and 300 μg/kg for 4 weeks. Blood samples were collected before the dose administration on day 0 and after 4 weeks of administrations of Compound IIa. After final bleeding, the liver, gallbladder, heart, thoracic and abdominal aorta from heart (left ventricle) to iliac arteries were sampled.
Rabbit aortas were fixed in neutral formalin buffer and embedded in paraffin. Longitudinal 3 μm sections were stained with Hematoxylin-Eosin-Saffron for histology analysis. The tissue sections were deparaffinized and incubated in protein-free block to inhibit the nonspecific binding of primary monoclonal antibodies used for the immunostaining of rabbit monocytes and macrophages (RAM11 obtained from Dako Corp. 1:100 dilution) and smooth muscle cell-specific actin (HHF35 obtained from Dako Corp. 1:100 dilution). Secondary biotinylated […] antibody was used at 1:300 dilution (Dako).
The issue of whether stimulation of the P2Y13r pathway could affect the regression of atherosclerosis pre-induced in the high-cholesterol diet fed rabbits was also addressed. […]

[1] = orally, up to 0.3 mg/kg for 4 weeks

CN(C)c1ncc(CN2CCC(c3cc(O)nc(N4CCOCC4)n3)CC2)cn1 [Compound IIa, 6-[1-(2-Dimethylaminopyrimidin-5-ylmethyl)-piperidin-4-yl]-2-morpholin-4-yl-pyrimidin-4-ol]
bile acids (BA) and free cholesterol secretion into bile (C57Bl6 mice): increase | regression of atherosclerotic plaques in aorta (decrease of cholesterol content of the entire artery) (New Zealand rabbits; orally, doses up to 0.3 mg/kg for 4 weeks): 30% | HDL cholesterol and rabbit apoA-I (HPLC, SELDI-TOF) (New Zealand rabbits; [1]): trend towards an increase | VLDL and LDL cholesterol (New Zealand rabbits; [1]): decreased slightly | pre-established atherosclerotic plaques in aortas of rabbits fed with cholesterol chow (New Zealand rabbits; summary statement): induced the regression | apoA-I mRNA expression in the liver (New Zealand rabbits; treated rabbits): increase | bile acid content in the liver (New Zealand rabbits; treated rabbits): increased | mRNA expressions of LDL receptors and SR-BI in the liver (QPCR) (New Zealand rabbits; treated rabbits): No change | plasma apoA-I (New Zealand rabbits; treated rabbits): increase
